Experimental data: publication PMC3591457, “Biodistribution and Elimination Study of Fluorine-18 Labeled N^ε-Carboxymethyl-Lysine following Intragastric and Intravenous Administration” (PLoS ONE, 2013)

Assays:
RAW264.7 cells = assay: Cell uptake of ^18F-CML and native CML in RAW264.7 cells; format: cell-based; conditions: n=3, P<0.01, blocking with non-radioactive CML
Experimental: (§1) To compare the different bioactivities of CML and ^18F-CML, two cell lines were evaluated for their capacity to take up native CML and the fluorobenzoylated derivative ^18F-CML. RAW264.7 macrophages and HepG2 liver cells were cultured in DMEM/LOWGLUCOSE, supplemented with 10% fetal bovine serum (FBS), 4.0 mmol/L L-glutamine, 110 mg/L sodium pyruvate, 100 U/mL penicillin, and 100 mg/L streptomycin at 37°C and 5% CO2.
(§2) For ^18F-CML cell uptake studies, RAW264.7 cells and HepG2 cells were seeded into 24-well plates at a density of 4×10^5 cells per well. Radio-tracer ^18F-CML (0.5 µCi/well, 3 µmol/mL) was incubated in a 37°C water bath for 15, 30, 60, and 120 min. At each time point the cells were washed 3 times with phosphate-buffered saline (PBS). The supernatant, washing-up liquid (unbound activity) and the pellet (cell-bound activity) were transferred to new tubes. Triplicates of the counting tubes containing supernatant and cell pellet were counted individually using a gamma counter for 1 min. For the blocking experiment, the uptake was carried out in the presence of the non-radioactive CML(10 µmol/mL) and processed similarly as described above. The uptake (%) of radio-tracer into the cell was determined using a gamma counter according to the following equation: [drawing 1]
(§3) For CML cell uptake ratio studies, unaltered CML (10 µmol/mL) was added to RAW264.7 and HepG2 cell pellets individually. The total proteins of each cell line were initially extracted from the lysates of 4×10^5 cells. […] The supernatants were purified and detected usingby the method described by Drusch et al., which uses an RP-HPLC method with an ortho-phthaldialdehyde (OPA)-derivatisation and fluorescence detection suited for automation. The HPLC analysis method used a 250 mm×4.6 mm C18 column (GROM-SIL 100 ODS-0 AB, Herrenberg, Germany) and detected the fluorescence excitation at 340 nm and emission at 455 nm. The peak identification of CML was confirmed by the retention time and standard addition and was quantified using an external standard. The amount of CML was calculated and expressed as a percentage.

HepG2 cells = assay: Cell uptake of ^18F-CML and native CML in HepG2 cells; format: cell-based; conditions: n=3, P<0.01, blocking with non-radioactive CML
Experimental: as §1, §2, §3

[1] = ^18F-CML in vitro stability (RCP by paper chromatography at room temperature); format: physicochemical; conditions: 6 h at room temperature (26±2°C)
Experimental: The in vitro stability of ^18F-CML was studied by storing the freshly prepared complex at room temperature (26±2°C) for a period of 6 h. The RCP was evaluated every 0.5 h using paper chromatography to determine its in vitro stability.

O=C(O)CNCCCCC(NC(=O)c1ccc([18F])cc1)C(=O)O (stereo not drawn) [^18F-CML]
Uptake of radioactivity in untreated cells relative to unlabelled CML-treated (blocked) cells (RAW264.7 cells): 1.8 fold
Uptake of radioactivity in untreated cells relative to unlabelled CML-treated (blocked) cells (HepG2 cells): 1.6 fold
Radiochemical purity (RCP) retained on storage (in vitro stability) [1]: 98.2±0.3%
